This is an account of results in paper PMC12440824, “Chimeric deubiquitinase engineering reveals structural basis for specific inhibition of the mitophagy regulator USP30” (Nature Structural & Molecular Biology, 2025).

Where “and” joins values, the source holds several entries; their conditions need not be identical. Identical values can stand only once.

The test system of experiment [1] is T1, endogenous USP30 in HEK293 cells.
T1 construct: Target engagement assay with endogenous USP30; endogenous in cells; host or cells: HEK293 (DSMZ ACC 305)
The experiment in a line: Cellular ubiquitin probe competition, endogenous USP30. Type of experiment: cell-based, human. The following applies: 8 µM compound, 2 h; HA-Ub-PA probe in lysate. The protocol:
Cells were seeded at 8 × 10^5 cells per well and grown for 48 h. Compounds (2 µM for overexpressed USP30, 8 µM for endogenous USP30) or DMSO were added for 2 h in freshly supplied medium. The medium was aspirated, and cells were washed once with ice-cold PBS. Cells were collected by scraping in lysis buffer (150 mM NaCl, 250 mM sucrose, 50 mM Tris, pH 8.0, 5 mM TCEP) supplemented with EDTA-free complete protease inhibitor cocktail and benzonase. Suspended cells were homogenized by 12 bursts of a microtip probe sonicator (Branson Sonifier 450) at 10% amplitude with pulses of 1 s on ice. Remaining cell debris was separated by centrifugation (20,817g, 5 min, 4 °C). HA-Ub-PA probe was added to the cleared lysate (approximately 2–4 mg ml^−1) at a final concentration of 10 μM when indicated. After incubation for 10 min at room temperature, reactions were quenched by the addition of 4× reducing LDS sample buffer. Samples were resolved by SDS–PAGE and further analyzed via western blot.
Using a Trans-Blot Turbo system (Bio-Rad, 1.0 A, 25 V, 30 min), proteins were blotted onto a nitrocellulose membrane. […] Images were recorded on a ChemiDoc MP Imaging System (Bio-Rad).

Experiment [2] relates to USP30^ch3 L328F. The experiment in a line: Thermal shift assay, USP30 ch3 L328F. Type of experiment: binding, human. The following applies: 20 μM inhibitor; for ΔTm, USP30^ch3 L328F: replicates or average. As to the method:
(§1) The thermal stability of USP30 constructs and effects of either inhibitor or Ub-PA binding were determined by thermal shift assays. Inhibitor, Ub-PA and SYPRO orange dye (Sigma, 5,000× stock in DMSO) solutions were prepared in 1× PBS, 4 mM DTT. Inhibitor/Ub-PA was prediluted to 100 µM, and SYPRO orange dye was prediluted to 50× (from the commercial stock). Mixtures of protein, inhibitor/Ub-PA and SYPRO were prepared with inhibitor/Ub-PA at a final concentration of 20 μM, SYPRO at a final concentration of 4× and protein at a final concentration of 2 μM for c1, 4 μM for ch1, ch4 and c2 and 3 μM for ch2 and ch3. Samples were added in triplicate to a white 96-well PCR plate (Bio-Rad). Fluorescence intensity was monitored (excitation, 450–490 nm; emission, 560–580 nm) at a gradient of 20–90 °C (increment of 0.3 °C, hold for 5 s before read) on a real-time PCR system (Bio-Rad).

Experiment [3] concerns the target T2, USP30^c1 (Homo sapiens, UniProt Q70CQ3, DEL179-208/DEL211-214/DEL358-428/F348D/I353E/M350S/N216S/S215G).
T2 sequence (Q70CQ3 with tags, fused parts or gaps DEL179-208/DEL211-214/S215G/N216S/F348D/M350S/I353E/DEL358-428): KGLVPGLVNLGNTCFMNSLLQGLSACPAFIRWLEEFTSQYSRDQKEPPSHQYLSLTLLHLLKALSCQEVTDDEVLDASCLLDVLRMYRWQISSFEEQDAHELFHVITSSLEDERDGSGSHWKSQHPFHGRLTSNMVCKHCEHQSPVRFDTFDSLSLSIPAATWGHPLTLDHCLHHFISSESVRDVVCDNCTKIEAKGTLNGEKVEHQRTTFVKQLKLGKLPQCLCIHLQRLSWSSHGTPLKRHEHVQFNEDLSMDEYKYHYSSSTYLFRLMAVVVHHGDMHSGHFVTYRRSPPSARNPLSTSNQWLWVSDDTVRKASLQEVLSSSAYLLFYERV
The experiment in a line: Ub–RhoG cleavage enzyme inhibition assay, USP30 construct 1. It is filed as biochemical. The following applies: for IC50: Ub–RhoG cleavage, 1.5 h pre-incubation, mean ± s.e.m. from curve fitting; for USP30c1 activity: mean n=3. The protocol:
Enzyme kinetics were performed in black, low-volume, non-binding-surface 384-well plates. […] Next, 10 µl of 2× enzyme solution was added in triplicate to the plate. The reaction was started by adding 10 µl of 2× substrate solution. […] Inhibitor solution (4×) was added to 4× enzyme solution to create a 2× enzyme–inhibitor mixture. Next, 10 µl of this 2× enzyme–inhibitor mixture was then added to the plate in triplicate, and the plate was incubated at room temperature for 90 min. The reaction was started by adding 10 µl of 2× Ub–RhoG substrate. […] Data were analyzed with GraphPad Prism.

The subject of experiment [4] is USP30 c2. The experiment in a line: Thermal shift assay, USP30 c2. Type of experiment: binding, human. The following applies: 20 μM inhibitor; for ΔTm, USP30 c2: replicates or average. As to the method:
as §1

Experiment [5] addresses USP30^ch3 F157A (Homo sapiens, UniProt Q70CQ3, F157A, form not given). Description: Thermal shift assay, USP30 ch3 F157A. It is filed as binding. The conditions noted are these: 20 μM inhibitor. As to the method: as §1
Setting [6] is: pH 8, read-out: USP30c1 activity.

USP30^ch3 F157A, sequence (Q70CQ3 64-502 F157A, form open): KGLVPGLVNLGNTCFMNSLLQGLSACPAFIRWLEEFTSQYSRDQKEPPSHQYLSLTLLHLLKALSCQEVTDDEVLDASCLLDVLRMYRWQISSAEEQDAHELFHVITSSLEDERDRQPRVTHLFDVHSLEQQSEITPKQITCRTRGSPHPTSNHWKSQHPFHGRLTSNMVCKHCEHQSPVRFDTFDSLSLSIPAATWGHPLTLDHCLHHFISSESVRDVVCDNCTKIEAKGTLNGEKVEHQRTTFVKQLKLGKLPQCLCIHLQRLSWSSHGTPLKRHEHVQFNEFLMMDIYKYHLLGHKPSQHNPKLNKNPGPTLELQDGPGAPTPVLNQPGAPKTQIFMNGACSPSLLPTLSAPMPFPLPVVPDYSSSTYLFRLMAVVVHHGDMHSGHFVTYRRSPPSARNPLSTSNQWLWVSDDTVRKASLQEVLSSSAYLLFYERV
USP30^ch3 F157A, sequence (P54578 248-318 partner, form open): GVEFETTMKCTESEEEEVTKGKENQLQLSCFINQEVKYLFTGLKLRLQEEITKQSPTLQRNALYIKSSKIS
USP30^ch3 F157A, sequence (Q9P2H5 821-846 partner, form open): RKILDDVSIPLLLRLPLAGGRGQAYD

For `CC(C)(CO)NS(=O)(=O)c1ccc(NC(=O)[C@H](Cc2ccccc2)NC(=O)c2ccc(F)cc2)cc1` [NK036], in experiment [1], the “activity in probe-labeling experiment with endogenous USP30” value is on record as “confirmed”. In experiment [2], the “Tm in presence of compound, USP30^ch3 L328F” value came out at 58.2 °C and the “ΔTm, USP30^ch3 L328F” value was found to be 1.2 °C. In experiment [3], the IC50 was 7.4 nM and 7.38 nM. Moreover, in experiment [3] (setting [6]), the activity at 1.562 pM amounted to 100%, the activity at 6.25 pM amounted to 101%, the activity at 25 pM stood at 98.2% and the activity at 0.0001 µM worked out at 95.3%. In experiment [3] (setting [6]), the activity at 0.00039 µM came to 89%, the activity at 0.00156 µM amounted to 79.6%, the activity at 0.00625 µM was 53.6% and the activity at 0.025 µM is 27%. In addition, in experiment [3] (setting [6]), the activity at 0.1 µM came to 10.3%, the activity at 0.4 µM was found to be 3.49% and the activity at 1.6 µM was determined as 1.25%. Besides, in experiment [4], the “Tm in presence of compound, USP30 c2” value was determined as 58.2 °C and the “ΔTm, USP30 c2” value stood at 7.5 °C. For the same compound, the “Tm in presence of compound, USP30^ch3 F157A” value in experiment [5] was 58.5 °C.

As to `CC(C)(C)NS(=O)(=O)c1ccc(NC(=O)[C@H](Cc2ccccc2)NC(=O)c2ccc(F)cc2)cc1` [compound 39], the “activity in probe-labeling experiment with endogenous USP30” value in experiment [1] is given as “confirmed”. The “Tm in presence of compound, USP30^ch3 L328F” value in experiment [2] came out at 58.5 °C. In experiment [2], the “ΔTm, USP30^ch3 L328F” value stood at 1.5 °C. For the same compound, the IC50 in experiment [3] is 0.8 nM and 0.834 nM. Besides, the USP30c1 activity in experiment [3] (inhibitor 0.0015625 nM) came out at 0.9588; in experiment [3] (inhibitor 0.00625 nM), 0.9404; in experiment [3] (inhibitor 0.025 nM), 0.8662; in experiment [3] (inhibitor 0.1 nM), 0.7469; in experiment [3] (inhibitor 0.39 nM), 0.5918; in experiment [3] (inhibitor 1.56 nM) it was 0.4353. In addition, the USP30c1 activity is given as 0.2635 in experiment [3] (inhibitor 6.25 nM); 0.1267 in experiment [3] (inhibitor 25 nM); 0.06264 in experiment [3] (inhibitor 100 nM); 0.02701 in experiment [3] (inhibitor 400 nM); 0.01055 in experiment [3] (inhibitor 1600 nM). For the same compound, in experiment [4], the “Tm in presence of compound, USP30 c2” value turned out to be 58.5 °C. Besides, in experiment [4], the “ΔTm, USP30 c2” value was 7.8 °C. For the same compound, the “Tm in presence of compound, USP30^ch3 F157A” value in experiment [5] worked out at 58.8 °C.

The IC50 is the concentration that inhibits the measured activity by half. Low values mean greater potency in that assay, high ones weaker potency in that assay.
